# Data: patent US6852696B2, “Inhibitors of glycosaminoglycans” (The University of Texas System, priority 1999, dated 2005)
# “Also recorded” adds a separate entry of the source.
# Legend:
# DC-associated HA = test: Binding of biotinylated peptide to DC surfaces; settings: biotinylated form
# Experimental: FIGS. 8B-D. Synthesis and surface expression of HA by DC. (B) XS106 DC were labeled with ^3H-glucosamine and then examined for the incorporation of hyaluronidase-sensitive radioactivities (means+/−s.e.m.; n=5) into the indicated subcellular fractions. (C) XS106 DC were incubated with biotinylated Pep-1 or RP and then with PE-conjugated streptavidin (filed histograms) (Mummert et al. J. Exp. Med. 192:769-779, 2000) or bovine testis hyaluronidase. Baseline staining levels with PE-streptavidin alone are shown with open histograms. (D) The indicated DC preparations were examined for binding of biotinylated Pep-1 (filled) and RP (open). Peptide binding to splenic DC and bone marrow-DC was examined within the CD11c^+ populations.
# XS52 DC = test: Cytokine secretion by XS52 DC stimulated with HA fragments (ELISA); format: cell-based; settings: 500 μg/ml; HA fragments 50 μg/ml
# Experimental: FIGS. 5A-C. Impact of Pep-1 on HA degradation products. (FIG. 5A) 96 well plates were coated with biotinylated-HA (0.1 μg/ml) and pretreated with 500 μg/ml of Pep-1 (open circles), RP (closed circles), or PBS alone (triangles) for 3 hours. These plates were then incubated for 30 min in the presence of HAase (from bovine testis). After extensive wash, the amounts of remaining biotinylated HA on the plates were determined by addition of streptavidin-alkaline phosphatase followed by p-nitrophenyl phosphate substrate. The % HA digestion was calculated from the optical densities. The data shown are the means+/−s.e.m.from triplicate samples analyzed with a hyperbolic model. (FIG. 5B) The impact of Pep-1 on HA digestion and on cell adhesion was examined in parallel using the HA-coated plates prepared simultaneously. Pep-1, RP, or PBS alone was added to the HA-coated plates as above and their effects on HAase-mediated HA degradation and on the adhesion of ^35S-labeled BW5147 thymoma cells were compared. The data shown are the means+/−s.e.m.(n=3) of 50% inhibition doses of HAase (left) and % cell adhesion (right). […] (FIG. 5C) Low molecular weight HA fragments were prepared by sonication of HMW HA followed by overnight digestion with HAase at 37° C. […] Results are expressed as the means+/−s.e.m.from triplicate samples. […]
# HA = test: Adhesion of 35S-labeled BW5147 thymoma cells to HA-coated plates; format: cell-based; settings: 500 μg/ml pretreatment
# Experimental: FIGS. 1A-B. (FIG. 1A) ^35S-labeled BW5147 thymoma cells were incubated on HA-coated plates (0.1 μg/ml) that had been pretreated with the indicated peptides (500 μg/ml). Data shown are the means+/−S.D. of % binding from quadruplicate samples. (FIG. 1B) FITC-conjugated HA (0.3 μg/ml) was preincubation with the indicated peptide (500 μg/ml) and examined for binding to BW5147 thymoma cells. Data shown are the binding of FITC-conjugated HA in the presence of the indicated peptides (closed histograms) as compared to the background autofluorescence levels (open histograms).
# FIGS. 5A-C. Impact of Pep-1 on HA degradation products. […] After extensive wash, the amounts of remaining biotinylated HA on the plates were determined by addition of streptavidin-alkaline phosphatase followed by p-nitrophenyl phosphate substrate. The % HA digestion was calculated from the optical densities. The data shown are the means+/−s.e.m.from triplicate samples analyzed with a hyperbolic model. […] Results are expressed as the means+/−s.e.m.from triplicate samples.
# To test the impact of Pep-1 on HA degradation, the present inventors developed a 96 well-based assay in which biotinylated HA was immobilized onto the plates and treated with HAase. The amounts of HA that remained attached to the wells was then determined by addition of streptavidin-conjugated alkaline phosphatase (FIG. 5A).
# Langerhans cells (LC) = settings: co-pending application 60/126,475; cited from earlier work
sequence,measurement,setting,value
GAHWQFNALTVR [Pep-1],"binding to other DC preparations (XS52 DC, splenic DC, bone marrow-derived DC)",DC-associated HA,bound to all other tested DC preparations
same,binding to surfaces of XS106 DC,DC-associated HA,bound to the surfaces of XS106 DC
same,binding to DC after hyaluronidase pretreatment,DC-associated HA; hyaluronidase pretreatment of DC,abolished almost completely
same,inhibition of IL-6 secretion triggered by HA fragments,XS52 DC,inhibited the secretion of both cytokines almost completely
same,inhibition of TNFα secretion triggered by HA fragments,XS52 DC,inhibited the secretion of both cytokines almost completely
same,inhibition of BW5147 cell adhesion to HA substrate,HA,blocked BW5147 cell adhesion; also recorded: significant (p<0.01 by ANOVA) inhibition of cell adhesion
same,inhibition of sensitization phase / hapten-triggered LC migration,Langerhans cells (LC),blocking hapten-triggered migration of Langerhans cells
